Data reported in patent US20040157837A1, “Combinations for the treatment of fungal infections” (priority 2002, published 2004).

Tests used:
Candida albicans MYA 573 = assay: Anti-proliferation assay, Candida albicans MYA 573; type: cell-based; settings: MYA573, Amphotericin B 0.00 μM (r16), read-out: Percent inhibition of proliferation
Description: (§1) Using the method described below, we tested the ability of the combination of various concentrations of amphotericin B plus disulfiram to inhibit the proliferation of numerous yeast strains using particle density as an indicator of cell number.
(§2) Two clinical Candida albicans isolates (one triazole-resistant strain and one triazole-susceptible strain) were obtained from the culture collection if the Seattle Biomedical Research Institute (Seattle, Wash.). Additional fungal strains were obtained from the American Type Culture Collection triazole-resistant C. albicans: ATCC MYA-573, C. glabrata: ATCC 90030. Yeast cultures were stored in 15% glycerol at −70° C. Isolates were cultured in growth medium (RPMI 1640; 2% glucose without NaHCO3 and phenol red, buffered with 0.165 M MOPS to pH 7.0) at 35° C. for 24 hours prior to in vitro susceptibility testing. All media reagents were purchased from Sigma Chemical Co. (St. Louis, Mo.).
(§3) The following compounds were used: disulfiram and amphotericin B (both from Sigma Chemical Co.). In the anti-proliferation experiments, Gentian Violet was used as a positive control for antifungal activity. Stock solutions of each compound were prepared in DMSO and stored at −20° C. Prior to use, stock solutions were diluted in RPMI to produce 10× solutions. 10× disulfiram (0-7 μL) and 10× amphotericin B (0-7 μL) were then plated in 40 μL of in 384 well microtiter plates to form a matrix of compound combinations.
(§4) All antifungal susceptibility testing was performed according to document M-27A as published by the National Committee for Clinical Laboratory Standards (Reference Method for Broth Dilution Antifungal Susceptibility Testing of Yeasts (1997), Wayne, Pa.). Briefly, yeast inocula from overnight cultures were standardized to a turbidity equivalent to a 0.5 McFarland Standard using a spectrophotometer at 530 nm, giving rise to a stock solution of 1×10^6 cells/mL. Each yeast suspension was further diluted in growth medium to yield a final inoculum concentration of approximately 4×10^3 cells/mL. Forty microlitres of the inoculum were used to inoculate each well, resulting in a final concentration of 2×10^3 cells/mL. Drug-free controls were included on each plate. Plates were incubated for 16 hours at 32° C. The amount of cell growth was determined by particle density as read on a Nephelometer (BMG Lab Technologies; Durham, N.C.).

Candida glabrata = assay: Anti-proliferation assay, Candida glabrata; type: cell-based; settings: Nakaseomyces glabratus, Amphotericin B 0.00 μM (r15), read-out: Percent inhibition of proliferation
Description: as §1, §2, §3, §4

Aspergillus fumigatus = assay: Anti-proliferation assay, Aspergillus fumigatus; type: cell-based; settings: Amphotericin B 0.00 μM, read-out: Percent inhibition of proliferation
Method: as §1
The Aspergillus fumigatus strain was obtained from the American Type Culture Collection (ATCC 46645). Aspergillus cultures were stored in 15% glycerol at −70° C. Isolates were cultured on Sabouraud glucose (SAB) agar plates at 37° C. for 5 to 7 days. Condidia were collected by addung 5 to 10 mL of sterile saline containing 0.05% Tween 20 to the plates and loosening condidia with a swab. Using a pipette, condidia were collected suspension and placed in a sterile bottle. This was repeated for all plates. After harvesting the suspension was filtered through gauze into a clean, sterile bottle. The turbidity of the supernatants was measured spectrophometrically at 530 nm and the transmission adjusted to 80-82% with PBS (with 0.05% Tween 20) to yield an initial suspension of 1×10^6 CFU/mL.
as §3, §4

[1] = cited from earlier work
[2] = test system: Candida albicans Strain 17; assay: Anti-proliferation assay, Candida albicans Strain 17; type: cell-based; settings: STRAIN17, Amphotericin B 0.00 μM (r16), read-out: Percent inhibition of proliferation
Description: as §1, §2, §3, §4

[3] = test system: Candida albicans Strain 1; assay: Anti-proliferation assay, Candida albicans Strain 1; type: cell-based; settings: STRAIN1, Amphotericin B 0.00 μM (r16), read-out: Percent inhibition of proliferation
Description: as §1, §2, §3, §4

CCN(CC)C(=S)SSC(=S)N(CC)CC [Disulfiram, bis(diethylthiocarbamoyl) disulfide]
inhibition at 0.01 µM (Candida albicans MYA 573; Disulfiram 0.01 μM): -5.62%
inhibition at 0.02 µM (Candida albicans MYA 573; Disulfiram 0.02 μM): 1.7%
inhibition at 0.04 µM (Candida albicans MYA 573; Disulfiram 0.04 μM): 10.3%
inhibition at 0.07 µM (Candida albicans MYA 573; Disulfiram 0.07 μM): 25.2%
inhibition at 0.14 µM (Candida albicans MYA 573; Disulfiram 0.14 μM): 39.3%
inhibition at 0.28 µM (Candida albicans MYA 573; Disulfiram 0.28 μM): 55.6%
inhibition at 0.56 µM (Candida albicans MYA 573; Disulfiram 0.56 μM): 78.3%
inhibition at 1.12 µM (Candida albicans MYA 573; Disulfiram 1.12 μM): 95%
inhibition at 0.01 µM (Candida glabrata; Disulfiram 0.01 μM): -10.4%
inhibition at 0.02 µM (Candida glabrata; Disulfiram 0.02 μM): -1.67%
inhibition at 0.04 µM (Candida glabrata; Disulfiram 0.04 μM): 1.52%
inhibition at 0.07 µM (Candida glabrata; Disulfiram 0.07 μM): 1.92%
inhibition at 0.14 µM (Candida glabrata; Disulfiram 0.14 μM): 2.12%
inhibition at 0.28 µM (Candida glabrata; Disulfiram 0.28 μM): 19.6%
inhibition at 0.56 µM (Candida glabrata; Disulfiram 0.56 μM): 61.3%
inhibition at 1.12 µM (Candida glabrata; Disulfiram 1.12 μM): 88.7%
inhibition at 0.04 µM (Aspergillus fumigatus; Disulfiram 0.04 μM): 0.66%
inhibition at 0.08 µM (Aspergillus fumigatus; Disulfiram 0.08 μM): -2.93%
inhibition at 0.16 µM (Aspergillus fumigatus; Disulfiram 0.16 μM): -2.21%
inhibition at 0.31 µM (Aspergillus fumigatus; Disulfiram 0.31 μM): -13.1%
inhibition at 0.63 µM (Aspergillus fumigatus; Disulfiram 0.63 μM): -0.75%
inhibition at 1.25 µM (Aspergillus fumigatus; Disulfiram 1.25 μM): 6.07%
inhibition at […] (Aspergillus fumigatus; Disulfiram 2.50 μM): 14.9%
inhibition at 5 µM (Aspergillus fumigatus; Disulfiram 5.00 μM): 31.7%
inhibition at 10 µM (Aspergillus fumigatus; Disulfiram 10.00 μM): 37.2%
soluble in alcohol ([1]; alcohol): about 3.8 mg/100 mL
soluble in water ([1]; water): about 20 mg/100 mL
inhibition at 0.01 µM ([2]; Disulfiram 0.01 μM): -3.64%
inhibition at 0.02 µM ([2]; Disulfiram 0.02 μM): -0.03%
inhibition at 0.04 µM ([2]; Disulfiram 0.04 μM): -0.15%
inhibition at 0.07 µM ([2]; Disulfiram 0.07 μM): 2.27%
inhibition at 0.14 µM ([2]; Disulfiram 0.14 μM): 2.66%
inhibition at 0.28 µM ([2]; Disulfiram 0.28 μM): 22.9%
inhibition at 0.56 µM ([2]; Disulfiram 0.56 μM): 30.5%
inhibition at 1.12 µM ([2]; Disulfiram 1.12 μM): 53.4%
inhibition at 0.01 µM ([3]; Disulfiram 0.01 μM): 5.3%
inhibition at 0.02 µM ([3]; Disulfiram 0.02 μM): 9.08%
inhibition at 0.04 µM ([3]; Disulfiram 0.04 μM): 10.1%
inhibition at 0.07 µM ([3]; Disulfiram 0.07 μM): 11.7%
inhibition at 0.14 µM ([3]; Disulfiram 0.14 μM): 18.2%
inhibition at 0.28 µM ([3]; Disulfiram 0.28 μM): 26.9%
inhibition at 0.56 µM ([3]; Disulfiram 0.56 μM): 54.5%
inhibition at 1.12 µM ([3]; Disulfiram 1.12 μM): 89.6%
